Here are results for one compound from US20050245455A1, “Gonadotropin releasing hormone antagonists in gel-forming concentrations” (priority 2001, published 2005).

For the data set the following is noted: dog, in vivo, sc.

Where a SMILES comes first, the peptide text is derived from it. [ ]: non-standard residue; d: D form. The star is where a group is joined. dPhe(4-NHCONH2) = NC(=O)Nc1ccc(C[C@@H](N)C(=O)O)cc1; Dihydroorotyl(S) = O=C1C[C@@H](C(=O)*)NC(=O)N1; dPhe(4-Cl) = N[C@H](Cc1ccc(Cl)cc1)C(=O)O; Phe(4-NH2) = Nc1ccc(C[C@H](N)C(=O)O)cc1; d2Nal = N[C@H](Cc1ccc2ccccc2c1)C(=O)O; Lys(iPr) = CC(C)NCCCC[C@H](N)C(=O)O; d3Pal = N[C@H](Cc1cccnc1)C(=O)O

In the case of `CC(=O)N[C@H](Cc1ccc2ccccc2c1)C(=O)N[C@H](Cc1ccc(Cl)cc1)C(=O)N[C@H](Cc1cccnc1)C(=O)N[C@@H](CO)C(=O)N[C@@H](Cc1ccc(NC(=O)[C@@H]2CC(=O)NC(=O)N2)cc1)C(=O)N[C@H](Cc1ccc(NC(N)=O)cc1)C(=O)N[C@@H](CC(C)C)C(=O)N[C@@H](CCCCNC(C)C)C(=O)N1CCC[C@H]1C(=O)N[C@H](C)C(N)=O` [Peptide 1, Ac-DNal-DCpa-DPal-Ser-Aph(L-Hor)-DAph(CONH2)-Leu-Lys(iPr)-Pro-DAla-NH2] (Ac-[d2Nal][dPhe(4-Cl)][d3Pal]S[Phe(4-NH2)](Dihydroorotyl(S))[dPhe(4-NHCONH2)]L[Lys(iPr)]P[dA]-NH2), the “Fraction of the total dose absorbed, subcutaneous compared to intramuscular administration” value is listed as “almost twice as high”.
